A value given as a limit tells only on which side of the number the result lay.

By chromatographic logP is commonly meant a lipophilicity value derived from retention on a column.

Series [1] concerns Leptosphaeria nodorum. Description: Leptosphaeria nodorum test (wheat) / protective. Type of series: in vivo. As to conditions: Parastagonospora nodorum, active compound concentration 500 ppm, evaluation 7-9 days after inoculation, read-out: efficacy. The method, then:
Thereafter, the plants are placed in a greenhouse at 90% relative atmospheric humidity and a temperature of 22° C.

The nature of series [2]: logP by LC-MS on reversed-phase columns (C 18), method [c], neutral range pH 7.8. The series is classed as physicochemical. As to conditions: pH 7.8. On the procedure: (§1) The logP values were determined in accordance with EEC Directive 79/831 Annex V.A8 by HPLC (High Performance Liquid Chromatography) on reversed-phase columns (C 18), using the methods below:
[c] The LC-MS determination in the neutral range is carried out at pH 7.8 using the mobile phases 0.001 molar aqueous ammonium bicarbonate solution and acetonitrile, linear gradient from 10% acetonitrile to 95% acetonitrile.

Series [3] is described as follows: logP by HPLC on reversed-phase columns (C 18), method [a], acidic range pH 2.3. Type of series: physicochemical. On the procedure: as §1
[a] The determination is carried out in the acidic range at pH 2.3 using the mobile phases 0.1% aqueous phosphoric acid and acetonitrile, linear gradient from 10% acetonitrile to 95% acetonitrile.

The test system of series [4] is Sphaerotheca fuliginea. Description: Sphaerotheca test (cucumber) / protective. As to conditions: Podosphaera fuliginea, 168 h, active compound concentration 500 ppm, evaluation 7 days after inoculation, read-out: efficacy. Type of series: in vivo. The method, then: The plants are subsequently placed in a greenhouse at 70% relative atmospheric humidity and a temperature of 23° C.

Series [5] can be described thus: logP by LC-MS on reversed-phase columns (C 18), method [b], acidic range pH 2.7. The series is classed as physicochemical. As to conditions: pH 2.7, log p. On the procedure:
as §1
[b] The LC-MS determination in the acidic range is carried out at pH 2.7 using the mobile phases 0.1% aqueous formic acid and acetonitrile (contains 0.1% formic acid), linear gradient from 10% acetonitrile to 95% acetonitrile.

In series [6] the test system is Pyrenophora teres. The series is described as follows: Pyrenophora teres test (barley) / protective. Type of series: in vivo. To be noted: 192 h, active compound concentration 500 ppm, evaluation 8 days after inoculation, read-out: efficacy. On the procedure:
After the spray coating has dried on, the plants are sprayed with a spore suspension of Pyrenophora teres. The plants remain in an incubation cabinet for 48 hours at 20° C. and 100% relative atmospheric humidity.

In the case of `COCc1cccc(Nc2ncc(F)c(NC3CCC3)n2)c1` [Example 8], the pest or weed control at 500 ppm in series [1] and in series [4] was at least 70% throughout. Further, the chromatographic logP in series [2] is 2.95; in series [3] (pH 2.3, log p) it was 1.5.

In the case of `COCc1cccc(Nc2ncc(Cl)c(N(C)C(C)C)n2)c1` [Example 29], the pest or weed control at 500 ppm in series [1] was at least 70%. Also, the chromatographic logP in series [2] amounted to 4; in series [3] (pH 2.3, log p), 2.56.

On to `CCS(=O)(=O)C(C)c1cccc(Nc2ncc(C(F)(F)F)c(NC3CCC3)n2)c1` (centres unmarked) [Example 40, N^4-cyclobutyl-N^2-{3-[1-(ethylsulphonyl)ethyl]phenyl}-5-(trifluoromethyl)pyrimidine-2,4-diamine], for which the pest or weed control at 500 ppm in series [1] and in series [4] was at least 70% each time. The chromatographic logP in series [3] (pH 2.3, logP (pH2.3)) worked out at 2.89; in series [5], 2.89.

`CC[S+]([O-])C(C)c1cccc(Nc2ncc(C(F)(F)F)c(NC3CCC3)n2)c1` (centres unmarked) [Example 43, N^4-Cyclobutyl-N^2-{3-[1-(ethylsulphinyl)ethyl]phenyl}-5-(trifluoromethyl)pyrimidine-2,4-diamine]: the pest or weed control at 500 ppm in series [1] and in series [4] was at least 70% each time. Besides, the chromatographic logP stood at 2.55 in series [3] (pH 2.3, logP (pH2.3)) and 2.55 in series [5].

`COCc1cccc(Nc2ncc(Cl)c(NCC#N)n2)c1` [Example 51]: the chromatographic logP is 2.09 in series [2] and 1.68 in series [3] (pH 2.3, log p).

In the case of `CC[S+]([O-])c1cccc(Nc2ncc(Br)c(NC3CCC3)n2)c1` (centres unmarked) [Example 112], the pest or weed control at 500 ppm in series [1], in series [6] and in series [4] was at least 70% throughout. Also, the chromatographic logP in series [2] stood at 2.63; in series [5], 1.88.

For the molecule `CCCC[S+]([O-])c1cccc(Nc2ncc(Cl)c(NC3CC3)n2)c1` (centres unmarked) [Example 124], the pest or weed control at 500 ppm in series [1], in series [6] and in series [4] was at least 70% throughout. Besides, the chromatographic logP in series [2] was determined as 2.71; in series [5], 2.13.

With `CCSC(C)c1cccc(Nc2ncc(Cl)c(NC(C)C)n2)c1` (centres unmarked) [Example 131], the pest or weed control at 500 ppm in series [1], in series [6] and in series [4] was at least 70% throughout. Moreover, the chromatographic logP in series [2] came out at 4.65; in series [5], 2.91.

In the case of `CCC(C)SC(C)c1cccc(Nc2ncc(C(F)(F)F)c(NC3CC3)n2)c1` (centres unmarked) [Example 132], the pest or weed control at 500 ppm in series [1], in series [6] and in series [4] was at least 70% each time. The chromatographic logP in series [2] stood at 5.38; in series [5], 5.09.

On to `CCC(C)[S+]([O-])c1cccc(Nc2ncc(Cl)c(NC3CC3)n2)c1` (centres unmarked) [Example 175], for which the pest or weed control at 500 ppm in series [1], in series [6] and in series [4] was at least 70% throughout. Further, the chromatographic logP in series [2] came out at 2.74; in series [5] it was 2.12.

With `COCC(O)c1cccc(Nc2ncc(Cl)c(NC3CC3)n2)c1` (centres unmarked) [Example 194], the pest or weed control at 500 ppm in series [1], in series [6] and in series [4] was at least 70% in each case. For the same molecule, in series [5], the chromatographic logP amounted to 1.26.

As for `COCc1cccc(Nc2ncc(Cl)c(NC3CC(C)C3)n2)c1` (centres unmarked) [Example 198], the pest or weed control at 500 ppm in series [1] and in series [4] was at least 70% throughout. The molecule also yielded a chromatographic logP in series [3] (pH 2.3, log p) of 4.04.

Regarding `CCOCCCSc1cccc(Nc2ncc(Cl)c(NC3CC3)n2)c1` [Example 204], the pest or weed control at 500 ppm in series [1] and in series [6] was at least 70% throughout. The chromatographic logP in series [2] is 4.22; in series [5] it was 3.02.

Consider `COCCOc1cccc(Nc2ncc(Cl)c(NC3CC3C)n2)c1` (centres unmarked) [Example 209], for which the pest or weed control at 500 ppm in series [1] and in series [6] was at least 70% throughout.

Turning to `COCCCOC(C)c1cccc(Nc2ncc(Cl)c(NC3CC3)n2)c1` (centres unmarked) [Example 256, 5-Chloro-N4-cyclopropyl-N2-{3-[1-(3-methoxypropoxy)ethyl]phenyl}pyrimidine-2,4-diamine], the chromatographic logP in series [2] is 3.62; in series [3] (pH 2.3, logP (pH2.3)) it was 2.2; in series [5], 2.2.

`CC(C)CCSc1cccc(Nc2ncc(C(F)(F)F)c(Cl)n2)c1` [Xa-3, 4-Chloro-N-{3-[(3-methylbutyl)sulphanyl]phenyl}-5-(trifluoromethyl)pyrimidin-2-amine] registered a chromatographic logP in series [3] (pH 2.3, logP (pH2.3)) of 5.79.

`CC(C)CCSc1cccc(Nc2ncc(Cl)c(Cl)n2)c1` [Xa-4, 4,5 -Dichloro-N-{3-[(3-methylbutyl)sulphanyl]phenyl}pyrimidin-2-amine] gave a chromatographic logP in series [3] (pH 2.3, logP (pH2.3)) of 4.98.

The molecule `CCCSc1cccc(Nc2ncc(Cl)c(Cl)n2)c1` [Xa-5, 4,5-Dichloro-N-[3-(propylsulphanyl)phenyl]pyrimidin-2-amine] registered a chromatographic logP in series [3] (pH 2.3, logP (pH2.3)) of 4.1.

In series [3] (pH 2.3, logP (pH2.3)), `CC(C)Sc1cccc(Nc2ncc(Cl)c(Cl)n2)c1` [Xa-6, 4,5-Dichloro-N-[3-(propan-2-ylsulphanyl)phenyl]pyrimidin-2-amine] had a chromatographic logP of 4.04.

In series [3] (pH 2.3, logP (pH2.3)), `CC(C)CSc1cccc(Nc2ncc(C(F)(F)F)c(Cl)n2)c1` [Xa-7, 4-Chloro-N-{3-[(2-methylpropyl)sulphanyl]phenyl}-5-(trifluoromethyl)pyrimidin-2-amine] showed a chromatographic logP of 5.4.

In series [3] (pH 2.3, logP (pH2.3)), `CSC(C)c1cccc(Nc2ncc(C(F)(F)F)c(Cl)n2)c1` (centres unmarked) [Xa-8, 4-Chloro-N-{3-[1-(methylsulphanyl)ethyl]phenyl}-5-(trifluoromethyl)pyrimidin-2-amine] returned a chromatographic logP of 4.5.

For the molecule `COC(C)c1cccc(Nc2ncc(C(F)(F)F)c(Cl)n2)c1` (centres unmarked) [Xa-9, 4-Chloro-N-[3-(1-methoxyethyl)phenyl]-5-(trifluoromethyl)pyrimidin-2-amine], the chromatographic logP in series [3] (pH 2.3, logP (pH2.3)) was found to be 3.89.

In series [3] (pH 2.3, logP (pH2.3)), `CSc1cccc(Nc2ncc(C(F)(F)F)c(Cl)n2)c1` [Xa-11, 4-Chloro-N-[3-(methylsulphanyl)phenyl]-5-(trifluoromethyl)pyrimidin-2-amine] displayed a chromatographic logP of 4.11.

For `CCSC(C)c1cccc(Nc2ncc(C(F)(F)F)c(Cl)n2)c1` (centres unmarked) [Xa-12, 4-Chloro-N-{3-[1-(ethylsulphanyl)ethyl]phenyl}-5-(trifluoromethyl)pyrimidin-2-amine], the chromatographic logP in series [3] (pH 2.3, logP (pH2.3)) came out at 4.9.

In turn, `COC(C)c1cccc(Nc2ncc(Br)c(Cl)n2)c1` (centres unmarked) [Xa-13, 5-Bromo-4-chloro-N-[3-(1-methoxyethyl)phenyl]pyrimidin-2-amine] registered a chromatographic logP in series [3] (pH 2.3, logP (pH2.3)) of 3.09.

For the molecule `CC(O)c1cccc(Nc2ncc(Cl)c(Cl)n2)c1` (centres unmarked) [Xa-14, 1-{3-[(4,5-Dichloropyrimidin-2-yl)amino]phenyl}ethanol], the chromatographic logP in series [3] (pH 2.3, logP (pH2.3)) was 1.98.

Take `CC(O)c1cccc(Nc2ncc(C(F)(F)F)c(Cl)n2)c1` (centres unmarked) [Xa-15, 1-(3-{[4-Chloro-5-(trifluoromethyl)pyrimidin-2-yl]amino}phenyl)ethanol]: the chromatographic logP in series [3] (pH 2.3, logP (pH2.3)) came to 2.81.

`CCCS(=O)(=O)c1cccc(Nc2ncc(C(F)(F)F)c(Cl)n2)c1` [Xc-1, 4-chloro-N-[3-(propylsulphonyl)phenyl]-5-(trifluoromethyl)pyrimidin-2-amine] had a chromatographic logP in series [3] (pH 2.3, logP (pH2.3)) of 3.29.

Values taken from US20110245284A1, “Alkoxy- and Alkylthio-Substituted Anilinopyrimidines” (Bayer CropScience AG, priority 2008, published 2011).
